The test system of the data set is rodent carcinogenicity bioassays, tumor incidence. The experiment in a line: CCRIS carcinogenicity studies. The gist of the method:
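Archive of carcinogenicity, mutagenicity, tumor promotion and tumor inhibition results drawn from journals, NCI reports and other sources, expert-reviewed; covers 1985-2011 and is no longer updated.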

Calls of active or inactive are those of the source. No rule for the calls is given here.

Regarding `C=C(C)CCl`, the carcinogen call was “active; positive” (Species: MOUSE, Strain/Sex: B6C3F1/FEMALE, Route: GAVAGE, Dose: 0, 100, 200 MG/KG IN CORN OIL 5 D/WK FOR 103 WK (STUDY DURATION: 2 YR), Dose: 0, 100, 200 MG/KG IN CORN OIL 5 D/WK FOR 103 WK (STUDY DURATION: 2 YR), Tumor Site: Type of Lesion: FORESTOMACH: EPITHELIAL HYPERPLASIA, SQUAMOUS CELL PAPILLOMA); “active; positive” (Species: MOUSE, Strain/Sex: B6C3F1/FEMALE, Route: GAVAGE, Dose: 0, 100, 200 MG/KG IN CORN OIL 5 D/WK FOR 103 WK, Dose: 0, 100, 200 MG/KG IN CORN OIL 5 D/WK FOR 103 WK, Tumor Site: Type of Lesion: FORESTOMACH: SQUAMOUS CELL PAPILLOMA, SQUAMOUS CELL PAPILLOMA OR CARCINOMA); “active; positive” (Species: MOUSE, Strain/Sex: B6C3F1/MALE, Route: GAVAGE, Dose: 0, 100, 200 MG/KG IN CORN OIL 5 D/WK FOR 103 WK (STUDY DURATION: 2 YR), Dose: 0, 100, 200 MG/KG IN CORN OIL 5 D/WK FOR 103 WK (STUDY DURATION: 2 YR), Tumor Site: Type of Lesion: FORESTOMACH: EPITHELIAL HYPERPLASIA, SQUAMOUS CELL PAPILLOMA, SQUAMOUS CELL CARCINOMA); “active; positive” (Species: MOUSE, Strain/Sex: B6C3F1/MALE, Route: GAVAGE, Dose: 0, 100, 200 MG/KG IN CORN OIL 5 D/WK FOR 103 WK, Dose: 0, 100, 200 MG/KG IN CORN OIL 5 D/WK FOR 103 WK, Tumor Site: Type of Lesion: FORESTOMACH: SQUAMOUS CELL PAPILLOMA, SQUAMOUS CELL CARCINOMA); “active; positive” (Species: MOUSE, Strain/Sex: BDF1/FEMALE, Route: INHALATION, Dose: 0, 50, 100, 200 PPM 6 HR/D 5 D/WK FOR 104 WK (STUDY DURATION: 104 WK), Dose: 0, 50, 100, 200 PPM 6 HR/D 5 D/WK FOR 104 WK (STUDY DURATION: 104 WK), Tumor Site: Type of Lesion: HARDERIAN GLAND: ADENOMA); “inactive; negative” (Species: MOUSE, Strain/Sex: BDF1/MALE, Route: INHALATION, Dose: 0, 50, 100, 200 PPM 6 HR/D 5 D/WK FOR 104 WK (STUDY DURATION: 104 WK), Dose: 0, 50, 100, 200 PPM 6 HR/D 5 D/WK FOR 104 WK (STUDY DURATION: 104 WK)). Moreover, the carcinogen call was “active; positive” (Species: RAT, Strain/Sex: F344/FEMALE, Route: GAVAGE, Dose: 0, 75, 150 MG/KG IN CORN OIL 5 D/WK FOR 103 WK (STUDY DURATION: 2 YR), Dose: 0, 75, 150 MG/KG IN CORN OIL 5 D/WK FOR 103 WK (STUDY DURATION: 2 YR), Tumor Site: Type of Lesion: FORESTOMACH: BASAL CELL HYPERPLASIA, SQUAMOUS CELL PAPILLOMA); “active; positive” (Species: RAT, Strain/Sex: F344/FEMALE, Route: GAVAGE, Dose: 0, 75, 150 MG/KG IN CORN OIL 5 D/WK FOR 103 WK, Dose: 0, 75, 150 MG/KG IN CORN OIL 5 D/WK FOR 103 WK, Tumor Site: Type of Lesion: FORESTOMACH: PAPILLOMA); “active; positive” (Species: RAT, Strain/Sex: F344/MALE, Route: GAVAGE, Dose: 0, 75, 150 MG/KG IN CORN OIL 5 D/WK FOR 103 WK (STUDY DURATION: 2 YR), Dose: 0, 75, 150 MG/KG IN CORN OIL 5 D/WK FOR 103 WK (STUDY DURATION: 2 YR), Tumor Site: Type of Lesion: FORESTOMACH: BASAL CELL OR EPITHELIAL HYPERPLASIA, SQUAMOUS CELL PAPILLOMA); “active; positive” (Species: RAT, Strain/Sex: F344/MALE, Route: GAVAGE, Dose: 0, 75, 150 MG/KG IN CORN OIL 5 D/WK FOR 103 WK, Dose: 0, 75, 150 MG/KG IN CORN OIL 5 D/WK FOR 103 WK, Tumor Site: Type of Lesion: FORESTOMACH: PAPILLOMA).

On to `C[C@H]1C[C@]2(C)[C@@H](O)CC[C@H]2[C@@H]2CCc3cc(O)ccc3[C@H]21`, for which the carcinogen call (Species: HAMSTER, Strain/Sex: SYRIAN/MALE, Route: SUBCUTANEOUS IMPLANT, Dose: 0, 20 MG IN PELLETS IMPLANTED EVERY 2.5 MO FOR 9 MO (STUDY DURATION: 9 MO)) is “inactive; negative”.

In the case of `c1ccc2c(c1)cnc1ccccc12`, the carcinogen call by setting is: (Species: RAT, Strain/Sex: SPRAGUE-DAWLEY/FEMALE, Route: SUBCUTANEOUS, Dose: 0, 200 UMOL/KG IN DMSO INTO SUPRASCAPULAR AREA ON DAY 1 OF LIFE FOLLOWED BY 0, 100 UMOL 1/WK AT WK 2-7 THEN 0, 200 UMOL/, Dose: 0, 200 UMOL/KG IN DMSO INTO SUPRASCAPULAR AREA ON DAY 1 OF LIFE FOLLOWED BY 0, 100 UMOL 1/WK AT WK 2-7 THEN 0, 200 UMOL/) “inactive; negative”; (Species: RAT, Strain/Sex: SPRAGUE-DAWLEY/MALE, Route: SUBCUTANEOUS, Dose: 0, 200 UMOL/KG IN DMSO INTO SUPRASCAPULAR AREA ON DAY 1 OF LIFE FOLLOWED BY 0, 100 UMOL 1/WK AT WK 2-7 THEN 0, 200 UMOL/, Dose: 0, 200 UMOL/KG IN DMSO INTO SUPRASCAPULAR AREA ON DAY 1 OF LIFE FOLLOWED BY 0, 100 UMOL 1/WK AT WK 2-7 THEN 0, 200 UMOL/) “inactive; negative”.

Take `COc1cc2c(c3ccc4ccccc4c13)CCC2`: the carcinogen call (Species: MOUSE, Strain/Sex: TO/MALE, FEMALE, Route: DERMAL, Dose: 0, 50 UG (10 µL OF A 0.5% W/V TOLUENE SOLUTION) 2/WK FOR 70 WK (STUDY DURATION: 70 WK), Tumor Site: Type of Lesion: SKIN: PAPILLOMA OR CARCINOMA) was “active; positive”.

As to `O=NN1CCCOC1`, for the setting “Species: RAT, Strain/Sex: F344/FEMALE, Route: ORAL, Dose: 40 MG/L IN DRINKING WATER FOR 50 WK, Tumor Site: Type of Lesion: LIVER: HEPATOCELLULAR CARCINOMA, HEMANGIOENDOTHELIAL SARCOMA”, the carcinogen call was “active; positive”.

Regarding `S=P(N1CCOCC1)(N1CC1)N1CC1`, the carcinogen call (Species: MOUSE, Route: INTRAPERITONEAL, Tumor Site: Type of Lesion: LUNG) was “active; positive”.

As to `NNc1ccc(C(=O)O)cc1`, the carcinogen call (Species: MOUSE, Strain/Sex: STRAIN-A/FEMALE, Route: ORAL, Dose: 0, 1000 PPM IN DRINKING WATER FOR 26 WK (STUDY DURATION: 26 WK)) was “inactive; negative”.

Consider `CCN(CC)c1ccc2c(-c3ccccc3C(=O)O)c3ccc(=[N+](CC)CC)cc-3oc2c1`, for which the carcinogen call is, setting by setting: (Species: MOUSE, Strain/Sex: ICR/FEMALE, Route: DERMAL, Dose: 0, 1 MG IN 0.1 ML DISTILLED WATER 2/WK FOR A MEAN TOTAL DOSE OF 121.4 MG (STUDY DURATION: 18 MO)) “inactive; negative”; (Species: MOUSE, Strain/Sex: ICR/MALE, Route: DERMAL, Dose: 0, 1 MG IN 0.1 ML DISTILLED WATER 2/WK FOR A MEAN TOTAL DOSE OF 121.4 MG (STUDY DURATION: 18 MO)) “inactive; negative”.

For `C=C(C)CN(CC)c1c([N+](=O)[O-])cc(C(F)(F)F)cc1[N+](=O)[O-]`, the carcinogen call runs as follows: (Species: Mouse, Strain/Sex: B6C3F1/Female (40/Experimental group; 60/Control group), Route: Oral, Dose: 0, 100, 400, 1500 ppm of 94.5% ethalfluralin in diet for 2 yr, study duration 2 yr (2 replicate studies)., Dose: 0, 100, 400, 1500 ppm of 94.5% ethalfluralin in diet for 2 yr, study duration 2 yr (2 replicate studies).) “inactive; negative”; (Species: Mouse, Strain/Sex: B6C3F1/Male (40/Experimental group; 60/Control group), Route: Oral, Dose: 0, 100, 400, 1500 ppm of 94.5% ethalfluralin in diet for 2 yr, study duration 2 yr (2 replicate studies)., Dose: 0, 100, 400, 1500 ppm of 94.5% ethalfluralin in diet for 2 yr, study duration 2 yr (2 replicate studies).) “inactive; negative”; (Species: Rat, Strain/Sex: Fischer 344/Female (30/Group; replicate studies using 94.5% ethalfluralin), Route: Oral, Dose: 0, 0.01, 0.025, 0.075% (0; 4.2; 10.7; 32.3 mg/kg/d) in diet for 2 yr, study duration 2 yr, Dose: 0, 0.01, 0.025, 0.075% (0; 4.2; 10.7; 32.3 mg/kg/d) in diet for 2 yr, study duration 2 yr, Tumor Site: Type of Lesion: Mammary gland: Benign fibroadenomas) “active; positive”; (Species: Rat, Strain/Sex: Fischer 344/Male (30/Group; replicate studies using 94.5% ethalfluralin), Route: Oral, Dose: 0, 0.01, 0.025, 0.075% (0; 4.2; 10.7; 32.3 mg/kg/d) in diet for 2 yr, study duration 2 yr, Dose: 0, 0.01, 0.025, 0.075% (0; 4.2; 10.7; 32.3 mg/kg/d) in diet for 2 yr, study duration 2 yr) “inactive; negative”.

Turning to `Cl[C@@H]1C2(Cl)C3C4[C@@H]5O[C@@H]5[C@H]5C3[C@@](Cl)(C2(Cl)Cl)[C@]1(Cl)[C@@H]45` (some centres not stated), the carcinogen call (Species: MOUSE, Strain/Sex: B6C3F1/FEMALE, Route: ORAL, Dose: 0, 0.32, 0.64 PPM IN DIET, Dose: 0, 0.32, 0.64 PPM IN DIET) is “inactive; negative”; the carcinogen call (Species: MOUSE, Strain/Sex: B6C3F1/MALE, Route: ORAL, Dose: 0, 0.32, 0.64 PPM IN DIET, Dose: 0, 0.32, 0.64 PPM IN DIET) was “inactive; negative”; the carcinogen call (Species: RAT, Strain/Sex: OSBORNE-MENDEL/FEMALE, Route: ORAL, Dose: 0, 3.4, 7.5 PPM IN DIET, TWA, Dose: 0, 3.4, 7.5 PPM IN DIET, TWA) is “inactive; negative”; the carcinogen call (Species: RAT, Strain/Sex: OSBORNE-MENDEL/MALE, Route: ORAL, Dose: 0, 5, 10 PPM IN DIET, Dose: 0, 5, 10 PPM IN DIET) was “inactive; negative”.

The values are drawn from PubChem BioAssay AID1259411 (Chemical Carcinogenesis Research Information System (CCRIS), 2018).
